Experiments:
NLRP3 [1] = biological target: T1, NLRP3 (Homo sapiens, UniProt Q96P20); assay: THP-1 cells pyroptosis assay; type: cell-based; parameters: Seed THP-1 cells (25,000 cells/well) containing 1.0 μg/ml LPS; host or cells: THP-1; conditions: LPS 1.0 μg/ml, nigericin 5 μM, resazurin readout, 10 μM top dose (Example 2: top dose of 30 μM)
Method in brief: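 THP-1 cells (25,000/well) primed with 1 μg/ml LPS in serum-free RPMI, treated with compound (8-point dilution, 10 μM top unless stated; 0.1% DMSO) 3 h at 37°C, then nigericin 5 μM 1 h. Viability read by resazurin (100 μM, 1-2 h) fluorescence; IC50 from 4-parameter fit.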

NLRP3 [2] = biological target: T1, NLRP3; assay: Human whole blood IL1β release assay; type: cell-based; conditions: LPS 1 μg/ml, nigericin 10 μM, IL-1β AlphaLisa, 10 μM top dose (Example 2: top dose of 30 μM), read-out: HWB IC50
Method in brief: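 Healthy-donor heparinised human whole blood with 1 μg/ml LPS, compound (8-point half-log dilution, 10 μM top dose unless stated; 0.1% DMSO vehicle) for 3 h at 37 °C, then nigericin 10 μM final for 1 h. Supernatant IL-1β by AlphaLISA; IC50 from 4-parameter variable-slope fit.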

[3] = PK, intravenous administration; type: in vivo; conditions: rat, plasma, male Sprague Dawley rats, dose about 1 mg/kg; for Vd: read-out: Vdss
Protocol: Pharmacokinetic parameters were determined in male Sprague Dawley rats (Vital River Laboratory Animal Technology Co Ltd, Beijing, China, 6-9 weeks old). Animals were maintained under a 12 h light/dark cycle. Animals had free access to food and water, except that orally dosed animals were food deprived overnight prior to the study.
For intravenous administration, compounds were formulated as a solution (in DMSO:water [10:90] or in DMSO:PBS [10:90]) in 2 mL/kg dosing volume and administered via tail vein. For oral administration, compounds were formulated as a solution (in 0.5% methylcellulose in water) in […] dosing volume and administered orally.
Serial blood samples (about 200 μL) were taken from each animal at each of 8 time-points post dose ([…], 0.25, 0.5, 1, 2, 4, 8 and 24 h). Samples were held on ice for no longer than 30 minutes before centrifugation (5,696 rpm (3,000 g) for 15 minutes) for plasma generation. Plasma was frozen on dry ice prior to bioanalysis. PK parameters were generated from LC-MS/MS data using Phoenix WinNonlin 6.3 software.

T1 sequence (Q96P20 whole entry): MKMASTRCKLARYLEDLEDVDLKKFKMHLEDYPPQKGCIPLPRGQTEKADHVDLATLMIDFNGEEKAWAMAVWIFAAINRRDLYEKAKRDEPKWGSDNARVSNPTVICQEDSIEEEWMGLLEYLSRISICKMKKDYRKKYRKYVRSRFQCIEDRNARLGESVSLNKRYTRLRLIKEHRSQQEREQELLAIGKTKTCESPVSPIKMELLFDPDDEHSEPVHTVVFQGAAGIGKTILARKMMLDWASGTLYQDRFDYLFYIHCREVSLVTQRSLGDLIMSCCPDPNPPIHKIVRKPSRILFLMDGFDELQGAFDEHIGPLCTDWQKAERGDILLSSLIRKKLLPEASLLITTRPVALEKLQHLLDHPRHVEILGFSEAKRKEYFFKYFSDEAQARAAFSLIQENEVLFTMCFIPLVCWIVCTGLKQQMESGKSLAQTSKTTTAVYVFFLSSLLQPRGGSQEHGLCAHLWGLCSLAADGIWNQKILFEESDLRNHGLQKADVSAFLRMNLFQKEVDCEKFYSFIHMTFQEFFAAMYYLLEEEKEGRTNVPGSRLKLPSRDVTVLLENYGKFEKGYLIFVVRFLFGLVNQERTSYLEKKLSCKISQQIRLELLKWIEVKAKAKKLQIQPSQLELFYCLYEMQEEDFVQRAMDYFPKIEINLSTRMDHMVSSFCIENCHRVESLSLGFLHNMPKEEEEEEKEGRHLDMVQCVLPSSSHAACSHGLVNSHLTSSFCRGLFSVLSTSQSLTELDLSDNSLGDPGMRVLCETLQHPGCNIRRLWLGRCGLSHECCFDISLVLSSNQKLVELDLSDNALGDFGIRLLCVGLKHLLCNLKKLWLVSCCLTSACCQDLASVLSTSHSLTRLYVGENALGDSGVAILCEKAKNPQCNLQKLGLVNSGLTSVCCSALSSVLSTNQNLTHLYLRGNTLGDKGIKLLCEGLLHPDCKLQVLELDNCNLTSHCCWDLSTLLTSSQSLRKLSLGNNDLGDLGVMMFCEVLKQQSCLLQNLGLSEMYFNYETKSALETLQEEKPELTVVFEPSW

SMILES | IC50 (NLRP3 [1]) [nM] | IC50 (NLRP3 [2]) [nM] | AUC [3] [ng·h/mL] | clearance [3] [mL/min/kg] | half-life [3] [h] | Vd [3] [L/kg]
CCN(CC)CCCS(=O)(=O)c1nnc(Nc2c(-c3ccnc(OC)c3)cc(F)cc2C(C)C)[nH]1 [Example 79, 5-((3-(diethylamino)propyl)sulfonyl)-N-(4-fluoro-2-isopropyl-6-(2-methoxypyridin-4-yl)phenyl)-4H-1,2,4-triazol-3-amine] | ≤ 500 | ≤ 5000 | 277 | 60 | 2.57 | 5.03
CN(C)CC1CCN(S(=O)(=O)c2nnc(Nc3c4c(cc5c3CCC5)CCC4)[nH]2)C1 (stereo not drawn) [Example 119, 5-((3-((dimethylamino)methyl)pyrrolidin-1-yl)sulfonyl)-N-(1,2,3,5,6,7-hexahydro-s-indacen-4-yl)-4H-1,2,4-triazol-3-amine] | ≤ 500 | ≤ 500 | 162 | 106 | 2.6 | 10.1
CC(C)c1cc(F)cc(C(C)C)c1Nc1nnc(S(=O)(=O)N2CCC(N(C)C)CC2)[nH]1 [Example 303, 1-((5-((4-fluoro-2,6-diisopropylphenyl)amino)-1H-1,2,4-triazol-3-yl)sulfonyl)-N,N-dimethylpiperidin-4-amine] | ≤ 1000 | ≤ 5000 | 200 | 80.7 | 2.45 | 11.5
CNC1CCN(S(=O)(=O)c2nnc(Nc3c4c(cc5c3CCC5)CCC4)[nH]2)CC1 [Example 130, 1-((5-((1,2,3,5,6,7-hexahydro-s-indacen-4-yl)amino)-4H-1,2,4-triazol-3-yl)sulfonyl)-N-methylpiperidin-4-amine] | ≤ 1000 | ≤ 5000 | 509 | 32.8 | 7.8 | 10.6
CN1CCC2(C1)CN(S(=O)(=O)c1nnc(Nc3c(-c4ccnc(OC(F)F)c4)ccc4c3CCO4)[nH]1)C2 [Example 212, N-(5-(2-(difluoromethoxy)pyridin-4-yl)-2,3-dihydrobenzofuran-4-yl)-5-((6-methyl-2,6-diazaspiro[3.4]octan-2-yl)sulfonyl)-4H-1,2,4-triazol-3-amine] | ≤ 500 | ≤ 500 | 216 | 76.1 | 0.19 | 0.88
COc1cc(-c2cc(F)cc(C(C)C)c2Nc2nnc(S(=O)(=O)c3ccccc3)[nH]2)ccn1 [Example 45, N-(4-fluoro-2-isopropyl-6-(2-methoxypyridin-4-yl)phenyl)-3-(phenylsulfonyl)-1H-1,2,4-triazol-5-amine] | ≤ 5000 | ≤ 5000 | 545 | 30.6 | 1.2 | 1.59
COc1cc(-c2ccc3c(c2Nc2nnc(S(=O)(=O)N4CC5(CCN(C)C5)C4)[nH]2)CCO3)ccn1 [Example 214, N-(5-(2-methoxypyridin-4-yl)-2,3-dihydrobenzofuran-4-yl)-5-((6-methyl-2,6-diazaspiro[3.4]octan-2-yl)sulfonyl)-4H-1,2,4-triazol-3-amine] | ≤ 500 | ≤ 500 | 182 | 78.1 | 0.25 | 1.02
Cn1ccc(S(=O)(=O)c2nnc(Nc3c4c(cc5c3CCC5)CCC4)[nH]2)n1 [Example 176, N-(1,2,3,5,6,7-hexahydro-s-indacen-4-yl)-5-((1-methyl-1H-pyrazol-3-yl)sulfonyl)-4H-1,2,4-triazol-3-amine] | ≤ 1000 | ≤ 10000 | 814 | 19.1 | 0.473 | 0.41
CCN(CC)CCCS(=O)(=O)c1nnc(Nc2c(-c3ccnc(OC)c3)ccc3c2CCC3)[nH]1 [Example 76, 5-((3-(diethylamino)propyl)sulfonyl)-N-(5-(2-methoxypyridin-4-yl)-2,3-dihydro-1H-inden-4-yl)-4H-1,2,4-triazol-3-amine] | ≤ 500 | ≤ 5000 | 210 | 79.4 | 0.9 | 2.48
